Assay results as given in paper PMC12610274, “Identification of Marrubiin as a Cathepsin C Inhibitor for Treating Rheumatoid Arthritis” (Molecules, 2025).

How the values were obtained:
Cat G = test: AIA model, serum Cat G activity; assay type: in vivo, Sprague-Dawley rats; conditions: rat AIA, high dose 60 mg/kg gavage, 15 days
Method: Thirty 4-week-old male Sprague-Dawley rats (weighing 120–130 g) were randomly divided into 6 groups (5 rats per group) after 1 week of adaptive feeding, namely the normal group, model group, low-dose experimental group (15 mg/kg), medium-dose experimental group (30 mg/kg), high-dose experimental group (60 mg/kg), and positive control group (30 mg/kg). Starting from Day 0 of the experiment, rats in the administration groups and model group were injected intradermally with 0.1 mL of CFA into the left hind paw to induce AIA, while rats in the normal group were injected intradermally with an equal volume (0.1 mL) of normal saline as a control. After 13 consecutive days of feeding, rats treated with CFA successfully developed typical AIA symptoms. […] During the experiment, the body weight, mental state, activity ability, hair color changes, and paw appearance changes of the rats were observed and recorded daily. In addition, on Day 0 of the experiment (baseline period), the basic paw volume of all rats was accurately measured using a plethysmometer, which served as a reference standard for subsequent evaluation of inflammation severity. From Day 13 to Day 28 of the experiment, the paw volume of the rats was measured repeatedly every 3 days. The degree of paw swelling was quantified by calculating the change in paw volume relative to the baseline. […] The cytokine levels in serum were measured. […]

Dipeptidyl Peptidase 4 = Dipeptidyl Peptidase 4 (Homo sapiens, UniProt P27487); test: Recombinant dipeptidyl peptidases isolated enzyme assay, DPP4; assay type: biochemical; conditions: read-out: Dipeptidyl Peptidase 4 Enz (IC50: μM)
Source text: Table 3 Inhibitory effects of marrubiin on dipeptidyl peptidase. | column: Dipeptidyl Peptidase 4 Enz (IC50: μM)

intracellular CTSC = molecular target: T1, intracellular CTSC (Homo sapiens, UniProt P53634); test: CTSC cell-based assay using the U937 cell line; conditions: read-out: Cell-Based Enz (IC50: nM)
T1 construct: endogenous in cells; host or cells: U937
Method: Cell-based CTSC enzymatic activity assays were performed in 96-well clear-bottom black microplates. […] The detection substrate, H-Gly-Arg-AFC, was diluted to 100 µM in serum-free medium and stored for later use. U937 cells in the logarithmic growth phase were harvested, washed with PBS, and counted. A single-cell suspension was prepared at a density of 1.0 × 10^6 cells/mL using serum-free medium. 30 µL of cell suspension was seeded into each well of the 96-well plate. To the test wells, 10 µL of the compound working solution was added, while 10 µL of serum-free medium was added to the control wells. The plate was pre-incubated in a cell culture incubator at 37 °C for 3 h. Subsequently, 10 µL of H-Gly-Arg-AFC was added to initiate the enzymatic reaction, and the plate was further incubated at 37 °C for 1 h. Fluorescence measurements were performed using a multimode microplate reader at excitation/emission wavelengths of 400/505 nm. Each group of tests was independently repeated at least 3 times, and IC50 values were calculated using SPSS 10.0.

[1] = Cytotoxicity assay, U937 cell line; assay type: cell-based; conditions: human, U937 cells
Method: RAW264.7 cells and U937 cells in the logarithmic growth phase were counted and diluted, and the concentrations of the single-cell suspensions of the two types of cells were adjusted to 5 × 10^4 cells/mL and 3 × 10^4 cells/mL, respectively. After thorough mixing, the cells were seeded into a 96-well plate, with 100 μL of cell suspension added to each well. Prepare the working solution of test compounds using the corresponding medium as the solvent, with the concentration of working solution being 2 times the final test concentration (2.5 μM, 5 μM, 10 μM, 20 μM, and 40 μM). Twenty-four hours after cell seeding, the compound working solutions were added to the compound test wells, and the same volume of medium was added to the negative control wells, followed by continuous incubation for another 24 h. Only the wells with the same volume but without cells served as the blank control group. The CellTiter-Lumi™ luminescent cell viability assay kit (Beyotime Biotechnology, Shanghai, China, C0065XL) was used to detect cell viability according to the standard operating procedures. Each group of tests was independently repeated at least 3 times, and IC50 values were calculated using SPSS 10.0.

[2] = test system: LPS-induced NO release by RAW 264.7 macrophages; test: LPS-induced NO release, Griess reagent; assay type: cell-based; conditions: Mus musculus, RAW264.7; LPS-stimulated RAW 264.7, 24 h
Method: RAW264.7 cells in the logarithmic growth phase were counted and diluted to a concentration of 6 × 10^4 cells/mL. After thorough mixing, the cell suspension was seeded into 48-well plates and incubated in a humidified atmosphere containing 5% CO2 at 37 °C. Following 24 h of incubation, the culture medium was carefully aspirated, and the cells were gently washed with phosphate-buffered saline. […] After 1 h of pre-incubation, 30 μL of lipopolysaccharide (1 μg/mL) was added to each well except for the blank control group, which remained unstimulated. Following an additional 24 h incubation under identical conditions, the culture supernatants were collected to assess NO production using the Griess reagent assay. Concentrations of pro-inflammatory cytokines and chemokines were determined using commercially available ELISA kits according to the protocols.

Dipeptidyl Peptidase 4, sequence (P27487 whole entry, species assumed): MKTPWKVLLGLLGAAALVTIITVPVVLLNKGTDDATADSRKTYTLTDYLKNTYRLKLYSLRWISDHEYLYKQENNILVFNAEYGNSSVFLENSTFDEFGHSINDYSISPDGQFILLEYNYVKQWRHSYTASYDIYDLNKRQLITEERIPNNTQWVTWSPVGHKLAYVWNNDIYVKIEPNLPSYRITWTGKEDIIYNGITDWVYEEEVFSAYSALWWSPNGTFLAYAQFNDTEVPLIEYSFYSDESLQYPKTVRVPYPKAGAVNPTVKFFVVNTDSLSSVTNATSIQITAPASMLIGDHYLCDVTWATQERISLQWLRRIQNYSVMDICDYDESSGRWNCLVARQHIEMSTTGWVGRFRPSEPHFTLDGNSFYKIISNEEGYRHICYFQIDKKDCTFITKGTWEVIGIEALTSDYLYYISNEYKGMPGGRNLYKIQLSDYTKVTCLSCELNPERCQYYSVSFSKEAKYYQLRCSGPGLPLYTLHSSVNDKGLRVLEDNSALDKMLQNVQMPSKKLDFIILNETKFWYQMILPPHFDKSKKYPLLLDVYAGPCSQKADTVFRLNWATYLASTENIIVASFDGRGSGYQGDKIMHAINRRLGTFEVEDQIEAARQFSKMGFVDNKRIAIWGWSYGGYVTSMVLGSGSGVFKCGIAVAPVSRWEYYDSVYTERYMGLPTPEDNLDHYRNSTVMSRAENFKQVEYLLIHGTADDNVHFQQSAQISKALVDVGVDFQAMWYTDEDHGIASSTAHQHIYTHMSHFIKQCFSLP
T1 sequence (P53634 25-463): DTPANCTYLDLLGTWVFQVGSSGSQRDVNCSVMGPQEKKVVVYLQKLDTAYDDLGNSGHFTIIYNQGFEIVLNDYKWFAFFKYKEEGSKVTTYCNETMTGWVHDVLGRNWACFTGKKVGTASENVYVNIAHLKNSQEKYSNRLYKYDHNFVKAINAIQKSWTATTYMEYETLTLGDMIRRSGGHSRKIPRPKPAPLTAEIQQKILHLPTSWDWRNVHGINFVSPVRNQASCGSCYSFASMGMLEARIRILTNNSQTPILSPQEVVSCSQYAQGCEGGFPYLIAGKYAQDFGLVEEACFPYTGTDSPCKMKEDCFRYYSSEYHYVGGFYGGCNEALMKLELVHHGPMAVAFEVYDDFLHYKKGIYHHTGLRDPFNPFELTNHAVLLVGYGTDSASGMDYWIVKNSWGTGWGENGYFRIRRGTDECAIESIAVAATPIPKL

For `C[C@@H]1C[C@H]2OC(=O)[C@@]3(C)CCC[C@@](C)([C@@H]23)[C@@]1(O)CCc1ccoc1` [Marrubiin, marrubiin], the “serum Cat G activity, % of control group” value (Cat G) was about 64%, the IC50 (Dipeptidyl Peptidase 4) was over 10 µM and the IC50 (intracellular CTSC) was 51.6 ± 3.2 nM. It also gave an IC50 at 24 h [1] of over 10 µM and an IC50 [2] of 830 nM.
